What was measured:
[1] = target: NMDA receptors; assay: NMDA receptor affinity (MK 801 binding)
Procedure: The affinity and selectivity of the compounds described above in greater detail for sigma receptors in comparison with NMDA receptors were determined following published methods (Kornhuber et al.: Eur. J. Pharmacol. 162, 483-490, 1989 and Neurosci. Lett. 163, 129-131, 1993).

[2] = target: Sigma receptors (Homo sapiens, UniProt Q99720); assay: Sigma receptor affinity (pentazocine binding)
Chain of Sigma receptors (Q99720 whole entry): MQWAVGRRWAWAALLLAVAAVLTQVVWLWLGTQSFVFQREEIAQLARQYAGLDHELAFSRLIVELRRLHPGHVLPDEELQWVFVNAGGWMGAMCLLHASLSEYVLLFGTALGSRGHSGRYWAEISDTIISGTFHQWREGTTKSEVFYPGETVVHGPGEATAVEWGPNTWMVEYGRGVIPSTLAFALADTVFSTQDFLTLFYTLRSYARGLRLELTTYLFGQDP

NC12CC3CC(CC(C3)C1)C2 [Amantadine]
Ki [1]: 10.5 µM

CC(C)(C)N1CCC(c2ccccc2)(c2ccccc2)CC1 [Budipine, budipine]
Ki [1]: 11.7 µM
Ki [2]: 2 µM

CC12CC3CC(C)(C1)CC(N)(C3)C2 [Memantine]
Ki [1]: 0.5 µM
Ki [2]: 20 µM

From patent publication US5994369A, “Substituted piperidine or pyrrolidine compounds for treating sigma-receptor modulated disorders” (Byk Gulden Lomberg Chemische Fabrik GmbH, priority 1995, dated 1999)
